Results as given in US20220298158A1, “POLYMORPH OF VENETOCLAX AND METHOD FOR PREPARING THE POLYMORPH” (Johnson Matthey Public Limited Company, priority 2019, published 2022).

Test: Stability study of venetoclax anhydrate under storage conditions (XRPD before and after storage)
Type: physicochemical
Description: FIG. 6 is representative XRPD overlay of venetoclax anhydrate before storage (bottom), venetoclax anhydrate after storage at 25° C./97% RH (relative humidity) for 7 days (middle), and venetoclax anhydrate after storage at 40° C./75% RH for 7 days (top).
X-Ray Powder Diffraction patterns were collected on a Bruker AXS C2 GADDS diffractometer using Cu Kα radiation (40 kV, 40 mA), automated XYZ stage, laser video microscope for auto-sample positioning and a HiStar 2-dimensional area detector. X-ray optics consists of a single Göbel multilayer mirror coupled with a pinhole collimator of 0.3 mm.
The beam divergence, i.e. the effective size of the X-ray beam on the sample, was approximately 4 mm. A θ-θ continuous scan mode was employed with a sample—detector distance of 20 cm which gives an effective 2θ range of 3.2° — 29.7° . Typically the sample would be exposed to the X-ray beam for 120 seconds. The software used for data collection was GADDS for XP/2000 4.1.43 and the data were analysed and presented using Diffrac Plus EVA v15.0.0.0.
Stability studies of venetoclax anhydrate under two storage conditions were also carried out. FIG. 6 is representative XRPD overlay of venetoclax anhydrate before storage (bottom), venetoclax anhydrate after storage at 25° C/97% RH (relative humidity) for 7 days (middle), and venetoclax anhydrate after storage at 40° C/75% RH for 7 days (top). […]

CC1(C)CCC(CN2CCN(c3ccc(C(=O)NS(=O)(=O)c4ccc(NCC5CCOCC5)c([N+](=O)[O-])c4)c(Oc4cnc5[nH]ccc5c4)c3)CC2)=C(c2ccc(Cl)cc2)C1 [venetoclax anhydrate, 4-(4-{[2-(4-chlorophenyl)-4,4-dimethylcyclohex-1-en-1-yl]methyl}piperazin-1-yl)-N-({3-nitro-4-[(tetrahydro-2H-pyran-4-ylmethyl)amino]phenyl}sulfonyl)-2-(1H-pyrrolo[2,3-b]pyridine-5-yloxy)benzamide]
time the anhydrate remains stable on storage (XRPD overlay) (storage at 25° C/97% RH (relative humidity) for 7 days): at least 7 days | time the anhydrate remains stable on storage (XRPD overlay) (storage at 40° C/75% RH for 7 days): at least 7 days
